Test results published in ChEMBL document CHEMBL5096181, “Isoxazole derivatives as anticancer agent: A review on synthetic strategies, mechanism of action and SAR studies” (Eur J Med Chem, 2021).
Values after ≈ are worked out from the molar mass of the structure shown.

Legend:
MCF7 [1] = experiment: Cytotoxicity against human MCF7 cells assessed as cell growth inhibition and measured after 72 hrs by SRB assay; type: functional, cell-based; conditions: MCF7, 72 h
Huh-7 = experiment: Cytotoxicity against human Huh-7 cells assessed as cell growth inhibition and measured after 72 hrs by SRB assay; type: functional, cell-based; conditions: Huh-7, 72 h
Mahlavu = experiment: Cytotoxicity against human Mahlavu cells assessed as cell growth inhibition and measured after 72 hrs by SRB assay; type: functional, cell-based
DU-145 = experiment: Cytotoxicity against human DU-145 cells assessed as inhibition of cell growth by MTT assay; type: functional, cell-based
MCF7 [2] = experiment: Anticancer activity against human MCF7 cells assessed as inhibition of cell proliferation measured after 4 hrs by MTT assay; type: functional, cell-based; conditions: MCF7, 4 h
LNCaP = experiment: Antiproliferative activity against human LNCaP cells assessed as cell growth inhibition by MTT assay; type: functional, cell-based
Tubulin [3] = experiment: Inhibition of tubulin polymerization (unknown origin) by spectrophotometer based analysis; type: protein-complex assay, Homo sapiens
LNCaP C4-2B = experiment: Antiproliferative activity against human LNCaP C4-2B cells assessed as cell growth inhibition by MTT assay; type: functional, cell-based
PC-3 = experiment: Antiproliferative activity against human PC-3 cells assessed as cell growth inhibition by MTT assay; type: functional, cell-based
CWR22R = experiment: Antiproliferative activity against human 22Rv1 cells assessed as cell growth inhibition by MTT assay; type: functional, cell-based
MCF7 [4] = experiment: Cytotoxicity against human MCF7 cells assessed as cell growth inhibition by MTT assay; type: functional, cell-based
[5] = target: T1, Tyrosine-protein phosphatase non-receptor type 1 (Homo sapiens, UniProt P18031); experiment: Inhibition of PTP1B (unknown origin) by SpectraMax 340 microplate reader Analysis
T1 sequence (P18031 whole entry): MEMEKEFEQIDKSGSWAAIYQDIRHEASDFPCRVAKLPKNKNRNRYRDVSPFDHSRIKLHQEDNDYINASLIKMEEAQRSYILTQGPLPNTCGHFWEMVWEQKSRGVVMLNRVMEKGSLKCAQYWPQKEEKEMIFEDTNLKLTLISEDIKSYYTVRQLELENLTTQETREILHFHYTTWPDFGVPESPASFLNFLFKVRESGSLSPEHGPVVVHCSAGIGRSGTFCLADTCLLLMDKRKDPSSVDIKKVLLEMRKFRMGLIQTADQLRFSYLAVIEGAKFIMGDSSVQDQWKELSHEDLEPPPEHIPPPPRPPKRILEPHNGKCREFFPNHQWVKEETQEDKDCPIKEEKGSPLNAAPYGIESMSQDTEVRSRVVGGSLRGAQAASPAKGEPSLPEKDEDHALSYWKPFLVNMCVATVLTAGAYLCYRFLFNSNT

[6] = target: T2, Tyrosine-protein phosphatase non-receptor type 2 (Homo sapiens, UniProt P17706); experiment: Inhibition of TCPTP (unknown origin) by SpectraMax 340 microplate reader Analysis
T2 sequence (P17706 whole entry): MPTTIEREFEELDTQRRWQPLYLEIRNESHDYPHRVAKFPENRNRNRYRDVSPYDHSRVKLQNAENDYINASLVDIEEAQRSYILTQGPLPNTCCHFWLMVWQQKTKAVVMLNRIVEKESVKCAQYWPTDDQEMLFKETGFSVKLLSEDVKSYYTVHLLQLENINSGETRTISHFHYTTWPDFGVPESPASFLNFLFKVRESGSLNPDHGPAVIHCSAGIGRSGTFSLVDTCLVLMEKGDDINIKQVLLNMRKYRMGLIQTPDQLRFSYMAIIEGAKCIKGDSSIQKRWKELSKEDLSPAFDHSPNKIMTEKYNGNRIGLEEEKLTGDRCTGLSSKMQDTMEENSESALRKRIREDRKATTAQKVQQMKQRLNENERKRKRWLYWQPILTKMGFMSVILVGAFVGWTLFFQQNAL

MCF7R = experiment: Cytotoxicity against human MCF7R cells assessed as cell growth inhibition and by MTT assay; type: functional, cell-based
MCF7 [7] = experiment: Induction of apoptosis in human MCF7 cells assessed as late apoptosis cells at 2.0 uM measured after 24 hrs by annexin-V-FITC and PI staining based flow cytometry analysis (reference value: 0.529%); type: functional
MCF7 [8] = experiment: Induction of apoptosis in human MCF7 cells assessed as early apoptosis cells at 2.0 uM measured after 24 hrs by annexin-V-FITC and PI staining based flow cytometry analysis (reference value: 0.486%); type: functional
Tubulin [9] = target: Tubulin (Sus scrofa, UniProt P02554+P02550); experiment: Inhibition of pig brain tubulin polymerization by spectrometric method
Aromatase = target: T3, Aromatase (Homo sapiens, UniProt P11511); experiment: Inhibition of human recombinant aromatase expressed in baculovirus insect cell using 7-methoxy-trifluoromethyl coumarin (MFC) as substrate preincubated for 10 mins followed by substrate addition and measured for 30 mins by fluorescence based assay
T3 sequence (P11511 whole entry): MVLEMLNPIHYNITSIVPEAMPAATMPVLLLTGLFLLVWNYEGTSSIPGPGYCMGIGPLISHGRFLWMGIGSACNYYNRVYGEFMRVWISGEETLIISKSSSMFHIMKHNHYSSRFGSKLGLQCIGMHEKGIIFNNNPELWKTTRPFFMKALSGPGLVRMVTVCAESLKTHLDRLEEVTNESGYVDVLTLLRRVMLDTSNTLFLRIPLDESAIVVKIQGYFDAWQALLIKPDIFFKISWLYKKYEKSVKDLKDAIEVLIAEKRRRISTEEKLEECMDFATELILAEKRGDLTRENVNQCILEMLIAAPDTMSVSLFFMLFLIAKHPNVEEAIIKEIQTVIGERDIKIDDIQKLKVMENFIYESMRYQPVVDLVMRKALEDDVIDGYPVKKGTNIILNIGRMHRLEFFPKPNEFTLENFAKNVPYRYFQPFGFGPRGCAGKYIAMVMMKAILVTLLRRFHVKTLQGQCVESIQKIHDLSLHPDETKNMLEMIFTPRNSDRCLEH

MCF7 [10] = experiment: Antiproliferative activity against human MCF7 cells assessed as inhibition of cell growth measured after 48 hrs by SRB assay; type: functional, cell-based; conditions: MCF7, 48 h

Cc1ccc(-c2cc(N3CCN(Cc4ccc(C(F)(F)F)cc4)CC3)no2)cc1
IC50 (MCF7 [1]): 9.4 µM | IC50 (Huh-7): 24 µM | IC50 (Mahlavu): > 40 µM

COc1ccc(C2CC(c3ccno3)=NN2C(N)=O)cc1OC (stereo not drawn)
IC50 (DU-145): 4 µg/mL (≈ 12.6 µM)

COc1ccc(-c2oncc2-c2ccccc2Cl)c2ccccc12
IC50 (MCF7 [2]): 10 µM

COc1cc(N(Cc2c(C)noc2C)C(=O)CSc2nc3ccccc3s2)cc(OC)c1OC
IC50 (LNCaP): 4.31 µM | IC50 (Tubulin [3]): 2.87 µM | IC50 (LNCaP C4-2B): 2.04 µM | IC50 (PC-3): 2.81 µM | IC50 (CWR22R): 2.13 µM

Nc1nn(Cc2cc(-c3cccc(C(F)(F)F)c3)no2)c2nc(-c3cccs3)cc(C(F)(F)F)c12
IC50 (MCF7 [4]): 13.4 µM

COc1cccc(-c2cc(Cn3nc(N)c4c(C(F)(F)F)cc(-c5cccs5)nc43)on2)c1
IC50 (MCF7 [4]): 19.4 µM

Fc1ccc(-c2cc(N3CCN(Cc4ccc(C(F)(F)F)cc4)CC3)no2)cc1
IC50 (MCF7 [1]): 11.9 µM | IC50 (Huh-7): 5.3 µM | IC50 (Mahlavu): 6.2 µM

Cc1cc(COc2ccc(-c3cc(N4CCN(Cc5ccc(C(F)(F)F)cc5)CC4)no3)cc2)n(C)n1
IC50 (MCF7 [1]): 1.2 µM | IC50 (Huh-7): 0.3 µM | IC50 (Mahlavu): 3.7 µM

CS(=O)(=O)c1ccc(-c2cc(N3CCN(Cc4ccc(C(F)(F)F)cc4)CC3)no2)cc1
IC50 (MCF7 [1]): 2.9 µM | IC50 (Huh-7): 4.2 µM | IC50 (Mahlavu): 26 µM

O=C(O)c1cccc(/C=C/c2ccc(Oc3cnoc3-c3cccc(Cl)c3)cc2)c1
IC50 [5]: 5.37 µM | IC50 [6]: 7.58 µM

O=C(O)c1cccc(/C=C/c2ccc(Oc3cnoc3-c3cccc([N+](=O)[O-])c3)cc2)c1
IC50 [5]: 2.05 µM | IC50 [6]: 13.2 µM

O=S(=O)(Nc1ccc(-c2cn[nH]c2)cc1)c1ccc(Cl)cc1
IC50 (MCF7 [1]): 50 µM

CCCOc1ccc(-c2cc(N3CCN(Cc4ccc(C(F)(F)F)cc4)CC3)no2)cc1
IC50 (MCF7 [1]): 4.9 µM | IC50 (Huh-7): 8.8 µM | IC50 (Mahlavu): 7.7 µM

COc1ccc(/C=C/c2cc(/C=C/c3ccc(O)c(OC)c3)no2)cc1O
IC50 (MCF7R): 12 µM | IC50 (MCF7 [4]): 13.1 µM

CCOc1ccc(-c2cnoc2-c2ccc(OC)c3ccccc23)cc1
inhibition at 2 µM (MCF7 [7]): 6.44% | inhibition at 2 µM (MCF7 [8]): 15.3% | IC50 (MCF7 [2]): 1.23 µM | IC50 (Tubulin [9]): 3.4 µM

O=C(O)c1cccc(/C=C/c2ccc(Oc3cnoc3-c3ccccc3Cl)cc2)c1
IC50 [5]: 1.75 µM | IC50 [6]: 36.2 µM

COc1ccc(C2CC(c3ccno3)=NN2C(N)=O)c(F)c1OC (stereo not drawn)
IC50 (DU-145): 2 µg/mL (≈ 5.98 µM)

Cc1c(-c2nocc2C(=O)SC#N)c(=O)n(-c2ccccc2)n1C
IC50 (Aromatase): 0.0023 µM

FC(F)(F)c1ccc(CN2CCN(c3cc(-c4ccccc4)on3)CC2)cc1
IC50 (MCF7 [1]): 19.1 µM | IC50 (Huh-7): 17.1 µM | IC50 (Mahlavu): 14.1 µM

COc1ccc(C2CC(c3c(-c4ccc([N+](=O)[O-])cc4)noc3C)=NN2C(N)=S)cc1 (stereo not drawn)
IC50 (MCF7 [4]): 4.48 µg/mL

FC(F)(F)c1ccc(CN2CCN(c3cc(-c4ccc(Cl)cc4)on3)CC2)cc1
IC50 (MCF7 [1]): 14 µM | IC50 (Huh-7): 9.6 µM | IC50 (Mahlavu): 26.8 µM

O=S(=O)(Nc1ccc(-c2cnoc2)cc1)c1ccc(Cl)cc1
IC50 (MCF7 [1]): 5.7 µM

Nc1nn(Cc2cc(-c3ccc4ccccc4n3)no2)c2nc(-c3cccs3)cc(C(F)(F)F)c12
IC50 (MCF7 [4]): 31.6 µM

COc1ccc(-c2cnoc2-c2ccc(OC)c3ccccc23)cc1
IC50 (MCF7 [2]): 2.03 µM

Cc1noc(C)c1COc1ccc(-c2cc(N3CCN(Cc4ccc(C(F)(F)F)cc4)CC3)no2)cc1
IC50 (MCF7 [1]): 1.6 µM | IC50 (Huh-7): 1.2 µM | IC50 (Mahlavu): 2.2 µM

COc1cc(N(C(=O)CSc2nc3ccccc3s2)c2ccncc2)cc(OC)c1OC
IC50 (CWR22R): 5.09 µM

Oc1ccc(-c2cc(N3CCN(Cc4ccc(C(F)(F)F)cc4)CC3)no2)cc1
IC50 (MCF7 [1]): 8.3 µM | IC50 (Huh-7): 3.8 µM | IC50 (Mahlavu): 7.5 µM

COc1ccc(-c2oncc2-c2ccc(Cl)cc2)c2ccccc12
IC50 (MCF7 [2]): 5.26 µM

FC(F)(F)c1ccc(CN2CCN(c3cc(-c4ccc(C(F)(F)F)cc4)on3)CC2)cc1
IC50 (MCF7 [1]): 9.5 µM | IC50 (Huh-7): 19.9 µM | IC50 (Mahlavu): > 40 µM

O=C(O)c1cccc(/C=C/c2ccc(Oc3cnoc3-c3ccc(Cl)c(Cl)c3)cc2)c1
IC50 [5]: 0.91 µM | IC50 [6]: 3.78 µM

Cc1onc(-c2ccc([N+](=O)[O-])cc2)c1C1=NN(C(N)=S)C(c2cccs2)C1 (stereo not drawn)
IC50 (MCF7 [4]): 2.25 µg/mL

COc1ccc(-c2cc(-c3c[nH]c4ccccc34)on2)cc1
IC50 (MCF7 [10]): 2.55 µM

Cc1onc(-c2ccc([N+](=O)[O-])cc2)c1C1=NN(C(N)=S)C(c2ccc(Cl)cc2)C1 (stereo not drawn)
IC50 (MCF7 [4]): 5.42 µg/mL

CC(=O)O[C@@]12CO[C@@H]1C[C@H](O)[C@@]1(C)C(=O)[C@H](O)C3=C(C)[C@@H](OC(=O)[C@H](O)[C@@H](NC(=O)OC(C)(C)C)c4ccccc4)C[C@@](O)([C@@H](OC(=O)c4ccccc4)[C@H]21)C3(C)C [DOCETAXEL ANHYDROUS]
IC50 (DU-145): 5 µg/mL (≈ 6.19 µM)

C#Cc1cccc(Nc2ncnc3cc(OCCOC)c(OCCOC)cc23)c1 [ERLOTINIB]
IC50 (MCF7 [1]): 4.1 µM

O=c1[nH]cc(F)c(=O)[nH]1 [FLUOROURACIL]
IC50 (Aromatase): 0.63 µM | IC50 (CWR22R): 18.3 µM | IC50 (MCF7 [4]): 1.7 µM

C[C@H](CCC(=O)O)[C@H]1CC[C@H]2[C@@H]3CC[C@@H]4C[C@H](O)CC[C@]4(C)[C@H]3CC[C@]12C [LITHOCHOLIC ACID]
IC50 [5]: 2.71 µM | IC50 [6]: 6.12 µM

CC(=O)O[C@H]1C(=O)[C@@]2(C)[C@H]([C@H](OC(=O)c3ccccc3)[C@]3(O)C[C@H](OC(=O)[C@H](O)[C@@H](NC(=O)c4ccccc4)c4ccccc4)C(C)=C1C3(C)C)[C@]1(OC(C)=O)CO[C@@H]1C[C@@H]2O [PACLITAXEL]
IC50 (MCF7 [4]): 0.015 µg/mL
